Assay results from patent US20240206469A1, “PHOSPHORUS USE EFFICIENCY ENHANCERS AS PLANT GROWTH PROMOTORS” (EUROCHEM ANTWERPEN, priority 2021, published 2024).

System: SPX1 phosphate starvation biomarker
Experiment: Chemical activity assessment with Arabidopsis pSPX1::GUS reporter line (GUS stained area)
Format: in vivo, Arabidopsis thaliana
Method: All Arabidopsis plant experiments were performed using the Arabidopsis thaliana Columbia-0 background. The Arabidopsis pSPX1::GUS line is described in the Plant Journal 2008, 54: 965-975. For rice, the cultivar Nipponbare was used. For maize, the cultivars DKC 2931 and B104 were used for regular pot experiments and sand-based pot experiments, respectively. For soybean, the cultivar Primus was used. […] The medium was solidified due to the addition of 0.6% Gelrite, unless stated otherwise. In case of vertical plates (root length and root hair measurements), the medium was supplied with 0.5% of sucrose and 1 μM (low phosphate, 1 μM KH2PO4, 9.9 mM KCl), 10 μM (low phosphate 10 μM KH2PO4, 9.9 mM KCl) or 1.25 mM KH2PO4 (high phosphate). Arabidopsis seeds were stratified for 2 days at 4° C. before germination. Seedlings were germinated in climate-controlled growth chambers at 22° C. under continuous light (100 μmol m^−2 s^−1). Husked rice seeds were germinated on wetted Whatman paper for 2 days at 37° C. and then transferred to Sterivent boxes or square Petri dishes with solid medium. Maize and soybean seeds were wetted 24 hours at room temperature prior to sowing in pots.
For the chemical activity assessment 3 to 8 seeds per well of Arabidopsis pSPX1::GUS line were sown in 96-well plates containing 150 μl of low phosphate modMS liquid medium containing 1% of sucrose. Compounds were added in 50 μM concentration, starting from a 5 mM stock of compounds solved in DMSO. Different chemical substances were separately added to different wells. Per plate, 16 control wells were used, 8 containing only the low phosphate medium and 1% DMSO, and 8 containing high phosphate medium and 1% DMSO. 7 days after germination, plates were scanned using a flatbed scanner (EPSON Expression 11000XL) and analyzed for leaf size. After scanning, the growth medium was replaced by GUS staining solution (see Plant Mol. Biol. Rep. 1994, 12: 37-42 for details) and incubated for 1.5 hours at 37° C. The plates were scanned a second time and analyzed for GUS signal area. Measurements of both leaf area and GUS signal area were conducted by filtering out and measure the green and blue signal, respectively using ImageJ software. If the green leaf area was 50% or less than the control, samples were omitted. Additionally, all results were visually screened for leaf size and GUS signal.

CC1CN(CC(=O)c2c(N)n(C)c(=O)n(C)c2=O)c2ccccc2O1 (centres unmarked) [Compound 8, 6-amino-1,3-dimethyl-5-[2-(2-methyl-2,3-dihydro-1,4-benzoxazin-4-yl)acetyl]pyrimidine-2,4-dione]
Suppression of the SPX1 biomarker (GUS staining) (7 days of growth in low phosphate, confirmed in two experimental repeats): practically completely suppressed the SPX1 biomarker | GUS (SPX1) stained area normalized to the number of seeds (low phosphate, 50 μM, 7 days after germination, compare with low phosphate controls of same plate (Table 5 c3)): 26 pixels
